Earlier results in PMC12691659 (Antimicrobial Agents and Chemotherapy, 2025).

Assays:
P-glycoprotein (P-gp) = conditions: cited from earlier work
[1] = in vivo; cited from earlier work
[2] = human, in vivo; cited from earlier work
[3] = human, in vivo; cited from earlier work; remark: listed apart in the source
[4] = in vivo, cited from earlier work
Source text: Its retrospective, uncontrolled design limits the ability to establish causal relationships. The adherence to co-prescribing treatments could not be verified. […] Overexposure definition was based on Cmin rather than AUC, because the latter is still not widely available in routine TDM.

## CCCc1nc2c(C)cc(-c3nc4ccccc4n3C)cc2n1Cc1ccc(-c2ccccc2C(=O)O)cc1 [telmisartan]
P-glycoprotein (P-gp)
  Inhibition of the transport of digoxin, a known P-gp substrate: inhibit the transport of digoxin

## CCCCCCCCCC(=O)N[C@@H](Cc1c[nH]c2ccccc12)C(=O)N[C@H](CC(N)=O)C(=O)N[C@@H](CC(=O)O)C(=O)N[C@@H]1C(=O)NCC(=O)N[C@@H](CCCN)C(=O)N[C@@H](CC(=O)O)C(=O)N[C@H](C)C(=O)N[C@@H](CC(=O)O)C(=O)NCC(=O)N[C@H](CO)C(=O)N[C@@H]([C@H](C)CC(=O)O)C(=O)N[C@@H](CC(=O)c2ccccc2N)C(=O)O[C@@H]1C [daptomycin]
[1]
  Dose excreted unchanged by the kidneys: 78%
[2]
  Increase of AUC in morbidly obese subjects: 60%
  Increase of Cmax in morbidly obese subjects: 60%
[3]
  CLDAP, population final estimate: 0.365 L/h
  Q, population final estimate: 0.752 L/h
  V1, population final estimate: 3.59 L
  V2, population final estimate: 4.71 L
  γCL: 0.193
  γV1: 0.24
  θ1 (CL, CLCR): 0.43
  θ2 (CL, Sex): 0.232
  θ3 (V1, Age): 0.263
  θ4 (V1, WT): 0.603
  θ6 (V1, Sex): 0.117
  ωCL: 0.196
  ωQ: 1.13
  ωV1: 0.123
  ωV2: 0.29
[4]; 6 mg/kg
  Cmin associated with an increased risk of CPK elevation: > 24.3 mg/L
[4]
  AUC associated with increased risk of adverse events: > 939 mg·h/L
  Cmin associated with increased risk of adverse events: > 24 mg/L

## CCCCC1=NC2(CCCC2)C(=O)N1Cc1ccc(-c2ccccc2-c2nnn[nH]2)cc1 [irbesartan]
[1]
  Dose eliminated unchanged in the urine: Up to 20%
P-glycoprotein (P-gp)
  Inhibition of the transport of digoxin, a known P-gp substrate: inhibit the transport of digoxin
P-glycoprotein (P-gp); renal efflux transporter
  P-glycoprotein substrate status: substrate of P-glycoprotein
